# The NIST ThermoML archive (doi:10.1016/j.jct.2018.10.026)
# Numbers after ± are expanded uncertainties.
# Conditions: 101.33 kPa, Liquid; for mass density: Vibrating tube method; for viscosity: Concentric cylinders viscometry
Compound,mass density (293.15 K) [kg/m3],mass density (298.15 K) [kg/m3],viscosity (303.15 K) [mPa·s],mass density (303.15 K) [kg/m3],viscosity (308.15 K) [mPa·s],mass density (308.15 K) [kg/m3],viscosity (313.15 K) [mPa·s],mass density (313.15 K) [kg/m3],viscosity (318.15 K) [mPa·s],mass density (318.15 K) [kg/m3],viscosity (323.15 K) [mPa·s],mass density (323.15 K) [kg/m3],viscosity (293.15 K) [mPa·s],viscosity (298.15 K) [mPa·s]
C[N+](C)(C)CCO.[O-]c1cccc2cccnc12 [choline 8-quinolinolate],1162.71 ± 6.5,1159.75 ± 6.5,4870960 ± 1.2e+06,1156.73 ± 6.4,2363490 ± 570000,1153.91 ± 6.4,1331720 ± 310000,1150.97 ± 6.4,755840 ± 180000,1147.91 ± 6.4,338330 ± 77000,1144.78 ± 6.4,–,–
C[C@H](O)C(=O)[O-].C[N+](C)(C)CCO,1137.33 ± 11,1133.94 ± 11,2903 ± 600,1130.52 ± 11,2207 ± 460,1127.05 ± 11,1728 ± 360,1123.55 ± 11,1368 ± 280,1120.11 ± 11,1110 ± 230,1116.7 ± 11,5513 ± 1200,3929 ± 820
